The series is described as follows: Solubility of doxorubicin in PBS (absorbance 495 nm). The class given is physicochemical. The settings on record: FIG. 38. As for the experimental part: Determination of doxorubicin content: 600, 300, 150, 75, 37.5, 18.75, 9.375, and 0 μg/mL DOX was formulated as a standard curve. 5 mg of doxorubicin hydrochloride was weighed and added to 1 mL of PBS. 10 mg of DOX-PLP was weighed and added to 100 μL of PBS. After dissolving by vortexing, the mixture was centrifuged at 21,000 for 10 min, and the supernatant was diluted to an appropriate multiple. The absorbance value was measured at 495 nm, and the DOX content was calculated based on the absorbance value of the standard curve.

Where a name gives a salt, the structure may show the parent alone.

In the case of `COc1cccc2c1C(=O)c1c(O)c3c(c(O)c1C2=O)C[C@@](O)(C(=O)CO)C[C@@H]3O[C@H]1C[C@H](N)[C@H](O)[C@H](C)O1` [doxorubicin hydrochloride], the solubility limit worked out at 573±22 μg/mL DOX.
